Data from publication PMC12521730, “Quantitative dual-isotope preclinical SPECT/CT imaging and biodistribution of the mercury-197m/g theranostic pair with [^197m/gHg]HgCl2 and a [^197m/gHg]Hg-tetrathiol complex as a platform for radiopharmaceutical development” (EJNMMI Radiopharmacy and Chemistry, 2025).

Experiment: Ex vivo biodistribution (gamma counter)
Assay type: in vivo, healthy male C57BL/6 mice
Conditions: Hg-197g, 2 h post administration
Protocol: For animal injection, the tracer was prepared at high molar activity. Radiolabeling of H4Tetrathiol (10^–2 M in DMSO; 40 μL for imaging, 20 μL for bioD) (or DMSO, for [^197m/gHg]HgCl2 mice) with [^197m/gHg]HgCl2 (imaging: 26.7 MBq total m + g, 62 μL; bioD: 13.04 MBq total m + g, 31 μL) was performed in a mixture of ammonium acetate buffer (1 M; pH 7; 198 μL for imaging or 149 μL for bioD) and 6 M NaOH (72 μL or 38 μL required to achieve a pH of 7.5 after addition of activity, for imaging or BioD labeling, respectively). The reaction was allowed to stand for 1 h at 37 °C and quantitative (> 99%) non-isolated percentage radiochemical yield (%RCY) was confirmed via the iTLC methods mentioned above. Further, 100 µL of the reaction was diluted with 50 µL of PBS Tween-20 (0.01 M sodium phosphate, 0.15 M NaCl, 0.05% Tween-20) for imaging mice, or 50 µL of the reaction was diluted with 100 µL of PBS Tween-20 for BioD mice. The tracers were prepared immediately before injection to avoid radiolysis and minimize the tracer loss to any surfaces due to its lipophilicity. The injected doses of each isomer, ^197mHg and ^197gHg, were quantified by measuring an aliquot of known volume of each tracer preparation via HPGe gamma spectroscopy and decay corrected for time of injection using the Eqs. (1) and (2).
The study was conducted in compliance with the guidelines set by the Canadian Council on Animal Care (CCAC) and approved by the Animal Care Committee (ACC) at the University of British Columbia (A20-0132). A total of eight healthy male C57BL/6 mice weighing approximately 30 g for group 1 and 25 g for group 2 were used in the study. The mice were divided into two experimental groups: group 1 (n = 4) received free [^197m/gHg]HgCl2, while group 2 (n = 4) received [^197m/gHg]Hg-Tetrathiol. Within each group, one mouse was allocated for imaging, while the rest were designated for ex vivo biodistribution analysis. For SPECT imaging, the designated mice were anesthetized using isoflurane via a precision vaporizer. […] Once anesthetized, each imaging mouse received an intravenous (IV) injection via the lateral tail vein of 150 μL of [^197m/gHg]HgCl2 (0.492 MBq ^197mHg + 3.171 MBq ^197gHg) or [^197m/gHg]Hg-Tetrathiol (0.899 MBq ^197mHg + 4.230 MBq ^197gHg) in PBS Tween-20 (0.01 M Na Phosphate, 0.15 M NaCl, 0.05% Tween-20).
Mice received an IV injection of [^197m/gHg]HgCl2 (0.275 MBq ^197mHg + 1.758 MBq ^197gHg, 150 μL) or [^197m/gHg]Hg-Tetrathiol (0.384 MBq ^197mHg + 1.733 MBq ^197gHg, 150 μL) (n = 3 per group) via the lateral tail vein using a Tailveiner restrainer. After the injection, the mice were returned to their experimental cages and allowed unrestricted movement. Biodistribution studies were conducted 2 h after administration. Mice were humanely euthanized with an overdose of isoflurane followed by cardiac puncture to collect blood pool activity. The organs of interest were fully extracted, cleaned of blood without rinsing, weighed, and analysed for radioactivity using a calibrated gamma counter with the 55–93 keV energy window for ^197gHg and the 110–160 keV energy window for ^197mHg (Packard Cobra II, Perkin Elmer, Waltham, MA, USA). The stomach and intestines were carefully cleaned prior to analysis to remove residual contents. For tissues and fluids that could not be fully removed (muscle, blood and bone) activity values were extrapolated based on standardised organ weights for age- and sex-matched mice tables to ensure accurate normalization (Davies and Morris [1993]; Foster et al. [2014]). The stomach and whole intestines were cleaned before analysis. The radioactivity measurements were decay corrected for time of injection using the Eqs. (1) and (2). The results are reported as the percentage of the injected activity per gram of tissue (%IA/g) and percentage of the injected activity per tissue (%IA/organ).

## O=C(CC[S-])OCC(COC(=O)CC[S-])(COC(=O)CC[S-])COC(=O)CC[S-].[Hg+2] [[^197m/gHg]Hg-Tetrathiol]
  Animal 1 (%IA/Organ): bladder: 0.00 %IA/Organ
  Animal 1 (%IA/Organ): blood: 0.13 %IA/Organ
  Animal 1 (%IA/Organ): bone: 3.25 %IA/Organ
  Animal 1 (%IA/Organ): brain: 0.01 %IA/Organ
  Animal 1 (%IA/Organ): feces: 0.00 %IA/Organ
  Animal 1 (%IA/Organ): heart: 0.07 %IA/Organ
  Animal 1 (%IA/Organ): kidneys: 1.54 %IA/Organ
  Animal 1 (%IA/Organ): large intestine: 0.02 %IA/Organ
  Animal 1 (%IA/Organ): liver: 110.52 %IA/Organ
  Animal 1 (%IA/Organ): lungs: 0.95 %IA/Organ
  Animal 1 (%IA/Organ): muscle: 0.14 %IA/Organ
  Animal 1 (%IA/Organ): pancreas: 0.01 %IA/Organ
  Animal 1 (%IA/Organ): small intestine: 0.03 %IA/Organ
  Animal 1 (%IA/Organ): spleen: 3.22 %IA/Organ
  Animal 1 (%IA/Organ): stomach: 0.02 %IA/Organ
  Animal 1 (%IA/Organ): tail: 0.69 %IA/Organ
  Animal 1 (%IA/Organ): urine: 0.00 %IA/Organ
  Animal 1 (%IA/g) g: bladder: 0.05 %IA/g
  Animal 1 (%IA/g) g: blood: 0.09 %IA/g
  Animal 1 (%IA/g) g: bone: 1.72 %IA/g
  Animal 1 (%IA/g) g: brain: 0.03 %IA/g
  Animal 1 (%IA/g) g: feces: 0.04 %IA/g
  Animal 1 (%IA/g) g: heart: 0.55 %IA/g
  Animal 1 (%IA/g) g: kidneys: 4.07 %IA/g
  Animal 1 (%IA/g) g: large intestine: 0.12 %IA/g
  Animal 1 (%IA/g) g: liver: 85.85 %IA/g
  Animal 1 (%IA/g) g: lungs: 7.12 %IA/g
  Animal 1 (%IA/g) g: muscle: 0.01 %IA/g
  Animal 1 (%IA/g) g: pancreas: 0.06 %IA/g
  Animal 1 (%IA/g) g: small intestine: 0.14 %IA/g
  Animal 1 (%IA/g) g: spleen: 44.55 %IA/g
  Animal 1 (%IA/g) g: stomach: 0.16 %IA/g
  Animal 1 (%IA/g) g: tail: 1.37 %IA/g
  Animal 1 (%IA/g) g: urine: 0.03 %IA/g
  Animal 2 (%IA/Organ): bladder: 0.00 %IA/Organ
  Animal 2 (%IA/Organ): blood: 0.17 %IA/Organ
  Animal 2 (%IA/Organ): bone: 2.68 %IA/Organ
  Animal 2 (%IA/Organ): brain: 0.01 %IA/Organ
  Animal 2 (%IA/Organ): feces: 0.00 %IA/Organ
  Animal 2 (%IA/Organ): heart: 0.09 %IA/Organ
  Animal 2 (%IA/Organ): kidneys: 0.82 %IA/Organ
  Animal 2 (%IA/Organ): large intestine: 0.01 %IA/Organ
  Animal 2 (%IA/Organ): liver: 133.87 %IA/Organ
  Animal 2 (%IA/Organ): lungs: 0.87 %IA/Organ
  Animal 2 (%IA/Organ): muscle: 0.22 %IA/Organ
  Animal 2 (%IA/Organ): pancreas: 0.01 %IA/Organ
  Animal 2 (%IA/Organ): small intestine: 0.02 %IA/Organ
  Animal 2 (%IA/Organ): spleen: 4.01 %IA/Organ
  Animal 2 (%IA/Organ): stomach: 0.04 %IA/Organ
  Animal 2 (%IA/Organ): tail: 0.56 %IA/Organ
  Animal 2 (%IA/Organ): urine: 0.00 %IA/Organ
  Animal 2 (%IA/g) g: bladder: 0.04 %IA/g
  Animal 2 (%IA/g) g: blood: 0.11 %IA/g
  Animal 2 (%IA/g) g: bone: 1.37 %IA/g
  Animal 2 (%IA/g) g: brain: 0.02 %IA/g
  Animal 2 (%IA/g) g: feces: 0.05 %IA/g
  Animal 2 (%IA/g) g: heart: 0.74 %IA/g
  Animal 2 (%IA/g) g: kidneys: 2.02 %IA/g
  Animal 2 (%IA/g) g: large intestine: 0.05 %IA/g
  Animal 2 (%IA/g) g: liver: 103.98 %IA/g
  Animal 2 (%IA/g) g: lungs: 6.17 %IA/g
  Animal 2 (%IA/g) g: muscle: 0.02 %IA/g
  Animal 2 (%IA/g) g: pancreas: 0.04 %IA/g
  Animal 2 (%IA/g) g: small intestine: 0.07 %IA/g
  Animal 2 (%IA/g) g: spleen: 61.57 %IA/g
  Animal 2 (%IA/g) g: stomach: 0.32 %IA/g
  Animal 2 (%IA/g) g: tail: 1.15 %IA/g
  Animal 2 (%IA/g) g: urine: 0.03 %IA/g
  Animal 3 (%IA/Organ): bladder: 0.00 %IA/Organ
  Animal 3 (%IA/Organ): blood: 0.18 %IA/Organ
  Animal 3 (%IA/Organ): bone: 2.26 %IA/Organ
  Animal 3 (%IA/Organ): brain: 0.01 %IA/Organ
  Animal 3 (%IA/Organ): feces: 0.00 %IA/Organ
  Animal 3 (%IA/Organ): heart: 0.09 %IA/Organ
  Animal 3 (%IA/Organ): kidneys: 1.16 %IA/Organ
  Animal 3 (%IA/Organ): large intestine: 0.02 %IA/Organ
  Animal 3 (%IA/Organ): liver: 131.25 %IA/Organ
  Animal 3 (%IA/Organ): lungs: 1.12 %IA/Organ
  Animal 3 (%IA/Organ): muscle: 0.21 %IA/Organ
  Animal 3 (%IA/Organ): pancreas: 0.01 %IA/Organ
  Animal 3 (%IA/Organ): small intestine: 0.02 %IA/Organ
  Animal 3 (%IA/Organ): spleen: 4.84 %IA/Organ
  Animal 3 (%IA/Organ): stomach: 0.09 %IA/Organ
  Animal 3 (%IA/Organ): tail: 0.27 %IA/Organ
  Animal 3 (%IA/Organ): urine: 0.00 %IA/Organ
  Animal 3 (%IA/g) g: bladder: 0.03 %IA/g
  Animal 3 (%IA/g) g: blood: 0.13 %IA/g
  Animal 3 (%IA/g) g: bone: 1.20 %IA/g
  Animal 3 (%IA/g) g: brain: 0.03 %IA/g
  Animal 3 (%IA/g) g: feces: 0.00 %IA/g
  Animal 3 (%IA/g) g: heart: 0.82 %IA/g
  Animal 3 (%IA/g) g: kidneys: 3.17 %IA/g
  Animal 3 (%IA/g) g: large intestine: 0.10 %IA/g
  Animal 3 (%IA/g) g: liver: 159.50 %IA/g
  Animal 3 (%IA/g) g: lungs: 8.45 %IA/g
  Animal 3 (%IA/g) g: muscle: 0.02 %IA/g
  Animal 3 (%IA/g) g: pancreas: 0.08 %IA/g
  Animal 3 (%IA/g) g: small intestine: 0.09 %IA/g
  Animal 3 (%IA/g) g: spleen: 77.82 %IA/g
  Animal 3 (%IA/g) g: stomach: 0.89 %IA/g
  Animal 3 (%IA/g) g: tail: 0.56 %IA/g
  Animal 3 (%IA/g) g: urine: 0.03 %IA/g
  Animal 4 (%IA/Organ): bladder: 0.00 %IA/Organ
  Animal 4 (%IA/Organ): blood: 0.15 %IA/Organ
  Animal 4 (%IA/Organ): bone: 2.62 %IA/Organ
  Animal 4 (%IA/Organ): brain: 0.01 %IA/Organ
  Animal 4 (%IA/Organ): feces: 0.00 %IA/Organ
  Animal 4 (%IA/Organ): heart: 0.09 %IA/Organ
  Animal 4 (%IA/Organ): kidneys: 1.00 %IA/Organ
  Animal 4 (%IA/Organ): large intestine: 0.01 %IA/Organ
  Animal 4 (%IA/Organ): liver: 107.31 %IA/Organ
  Animal 4 (%IA/Organ): lungs: 0.93 %IA/Organ
  Animal 4 (%IA/Organ): muscle: 0.20 %IA/Organ
  Animal 4 (%IA/Organ): pancreas: 0.01 %IA/Organ
  Animal 4 (%IA/Organ): small intestine: 0.02 %IA/Organ
  Animal 4 (%IA/Organ): spleen: 4.62 %IA/Organ
  Animal 4 (%IA/Organ): stomach: 0.01 %IA/Organ
  Animal 4 (%IA/Organ): tail: 2.67 %IA/Organ
  Animal 4 (%IA/Organ): urine: 0.00 %IA/Organ
  Animal 4 (%IA/g) g: bladder: 0.07 %IA/g
  Animal 4 (%IA/g) g: blood: 0.10 %IA/g
  Animal 4 (%IA/g) g: bone: 1.40 %IA/g
  Animal 4 (%IA/g) g: brain: 0.02 %IA/g
  Animal 4 (%IA/g) g: feces: 0.01 %IA/g
